From patent US6436660B1, “Identification of novel antimicrobial agents using metabolic oxidation-reduction indicator dyes” (XOMA Technology Ltd., priority 1999, dated 2002)

Columns and labels:
Candida albicans = experiment: Effect of antifungal compounds on fungal cells with Alamar Blue (fluorimetric metabolic oxidation-reduction indicator dye assay); format: cell-based; conditions: for characteristic pattern or "fingerprint": increased metabolic oxidation-reduction activity (Alamar Blue fluorescence) relative to untreated control cells: Candida albicans 1x10^7 cells/mL, test compound two-fold dilutions from 64 μg/mL, 37° C., readings 0-60 min, best seen at 15 min (FIG. 2); for characteristic "fingerprint" with metabolic oxidation-reduction indicator dye (statement on negative controls): for fungal cells, summary statement
Text: Alamar Blue™ is an indicator dye formulated to measure quantitatively the proliferation of a variety of human or animal cells, bacteria, or fungi. It consists of an oxidation-reduction (REDOX) indicator that yields colorimetric and fluorimetric changes in response to metabolic activity (electron transport activity).
The relative effect of two BPI-derived peptides, XMP.391 (SEQ ID NO: 4) and XMP.445 (SEQ ID NO: 6), and the antifungal compound amphotericin B on fungal cells with the metabolic oxidation-reduction indicator dye Alamar Blue™ [AccuMed Int'l, Westlake, Ohio] was assessed as follows.
Candida albicans were grown in 75 mL Sabouraud's dextrose broth (SDB) for 5 hours at 30° C. Cells were pelleted by centrifiguation for 5 minutes in a Sorvall RT6000B centrifuge at 3,000 rpm (1500×g) and resuspended in 15 mL of fresh SDB. A 1:10 dilution of this suspension was used for an OD570 nm detennination. One OD unit is equivalent to 1×10^7 CFU/mL. Cells were adjusted to a concentration of 2×10^7 CFU/mL.
Test compounds XMP.391, XMP.445 and Amphotericin B (AMB) were two-fold serially diluted in SDB from a concentration of 128 μg/mL in a 96-well plate. This was done in triplicate with each well containing a volume of 100 μL. An equal volume of the yeast suspension was added to each well.
Alamar Blue™ was added at 20 μL per well and the initial (t=0) fluorescence readings were performed in a Molecular Devices SpectraMax Gemini plate reader. The excitation wavelength was 544 nm and the emission wavelength was measured at 590 nm. The plate was incubated at 37° C. and additional readings at 15, 30, 45 and 60 minutes were performed. Metabolic oxidation-reduction activity is detected by an increase in fluorescence emission.

bacterial growth = conditions: background statement on narrow therapeutic window; cited from earlier work
[1] = background statement on narrow therapeutic window; cited from earlier work
[2] = test system: E. coli (ATCC strain 8739); experiment: Effect of antibacterial compounds on bacteria with Alamar Blue (colorimetric OD595 assay); format: cell-based; conditions: for bacteria; summary statement
Description: E. coli (ATCC strain 8739) was incubated at 37° C. in 5 mL cation-adjusted Mueller Hinton Broth (CAMHB) for 3 hours to attain log phase growth. The bacteria were pelleted in a Sorvall RT6000B centrifuge for 5 minutes at 3,000 rpm (1.500×g ) and resuspended in 5 mL of fresh CAMHB. A 1:10 dilution was performed for an OD570 nm determination. One OD unit equals 1.25×10^9 CFU/mL. The bacterial suspension was adjusted to 1×10^8 CFU/mL.
This was done in triplicate with each well containing a volume of 100 μL. An equal volume of the bacterial suspension was added to each well. […] Alamar Blue™ was added at 20 μL per well. The “Blank” contained media and Alamar Blue™ only, without cells.
OD595 nm readings were performed in a Molecular Devices plate reader. This required that samples be centrifuged to pellet bacteria and related debris which would contribute to the OD595 nm reading. 150 μL were removed from the wells at various timepoints, centrifuged (2 minutes, 2,000 rpm) and 50 μL of supernatant was carefully transferred to a fresh 96-well plate for the reading. Timepoints were read at 0, 30, 60, 90 and 120 minutes. Metabolic oxidation-reduction activity is detected by an increase in OD in this colorimetric assay.

C[C@@H]1[C@H](O)[C@@H](C)/C=C/C=C/C=C/C=C/C=C/C=C/C=C/[C@H](O[C@@H]2O[C@H](C)[C@@H](O)[C@H](N)[C@@H]2O)C[C@@H]2O[C@](O)(C[C@@H](O)C[C@@H](O)[C@H](O)CC[C@@H](O)C[C@@H](O)CC(=O)O[C@H]1C)C[C@H](O)[C@H]2C(=O)O [amphotericin B]
characteristic pattern or "fingerprint": increased metabolic oxidation-reduction activity (Alamar Blue fluorescence) relative to untreated control cells (Candida albicans): did not show the “fingerprint.”
characteristic "fingerprint" with metabolic oxidation-reduction indicator dye (statement on negative controls) (Candida albicans): do not exhibit the characteristic “fingerprint,”

OC(Cn1cncn1)(Cn1cncn1)c1ccc(F)cc1F [fluconazole]
characteristic "fingerprint" with metabolic oxidation-reduction indicator dye (statement on negative controls) (Candida albicans): do not exhibit the characteristic “fingerprint,”

XMP.391: BPI-derived peptide, domain III-derived, SEQ ID NO: 4; structure described in Table 1 of U.S. Pat. No. 5,858,974 (KVGWLIQLFHKK)
characteristic pattern or "fingerprint": increased metabolic oxidation-reduction activity (Alamar Blue fluorescence) relative to untreated control cells (Candida albicans): known to produce this characteristic pattern

antimycin
characteristic "fingerprint" with metabolic oxidation-reduction indicator dye (statement on negative controls) (Candida albicans): do not exhibit the characteristic “fingerprint,”

gentamicin
concentration required to produce a therapeutic effect (bacterial growth): 8 µg/mL
concentration that produces a toxic effect [1]: 12000 ng/mL

polymyxin
characteristic "fingerprint" with metabolic oxidation-reduction indicator dye (statement on negative controls) [2]: do not exhibit the characteristic “fingerprint,”
